According to paper PMC9737648, “Novel Approaches for the Solid-Phase Synthesis of Dihydroquinazoline-2(1H)-One Derivatives and Biological Evaluation as Potential Anticancer Agents” (Molecules, 2022):

Key:
[1] = test system: breast cancer cells (MDA-MB-231); assay: MTT cytotoxicity assay, MDA-MB-231; assay type: cell-based, human; conditions: 72-h incubation
Experimental: (§1) The above cells were tested for cytotoxicity to identify the most promising antitumor drug among the synthesized quinazolinone derivatives.
(§2) An MTT assay was used to evaluate the in vitro cytotoxicity of the new compounds. The MTT assay depends on the reduction of soluble 3-([…])-2,5-diphenyl-tetrazolium bromide (MTT) into a blue purple formazan product, mainly by mitochondrial reductase activity inside living cells. […] The cells were suspended in growth medium and plated in 96-well culture plates at a density of 4 × 10^4 cells/well and incubated at 37 °C in a 5% CO2 incubator. […] Each experiment was performed at least 3 times.

[2] = DPPH• free radical scavenging assay; conditions: for IC50: concentration required to scavenge 50% of the DPPH, 30 min in the dark; for antioxidant activity (in words): DPPH assay
Experimental: The quinazolinone derivatives were evaluated for their free radical scavenging activity at 320, 160, 80, 40, 20, and 10 µM concentration using the DPPH radical method, with ascorbic acid as the positive control (Table 3).
The antiradical activity of the compounds was estimated according to a slight modification of the procedure reported by Morales and Jimenez-Perez. […] Each sample (100 μL) at a different concentration was added to a freshly prepared solution of 1,1-diphenyl-2-picrylhydrazyl (DPPH•) radical (0.2 mM, 100 μL). The mixtures (200 μL) were placed in a 96-well microplate, shaken vigorously, and then left to stand for 30 min in the dark. Then, absorbance was immediately measured at a wavelength of 517 nm. Vc was used as the standard. The antiradical activity for each compound was determined in the Vc equivalent antioxidant capacity. The DPPH• solution in the presence of ethanol and in the absence of compounds was tested and used as a negative control. […] In all experiments, the samples were analyzed in triplicate, and activity for each compound was presented as the mean value ± SEM and used for evaluation of structure–activity relationships. […] Absorbance was taken at 520 nm using a microplate reader (Tecan, Männedorf, Switzerland).

[3] = test system: human liver cancer cells (HepG-2); assay: MTT cytotoxicity assay, HepG-2; assay type: cell-based; conditions: 72-h incubation
Experimental: as §1, §2

[4] = test system: human hepatic stellate cells (LX-2); assay: MTT cytotoxicity assay, LX-2 normal control; assay type: cell-based; conditions: 72-h incubation
Experimental: as §1, §2

[5] = test system: ovarian cancer cells (A2780); assay: MTT cytotoxicity assay, A2780; assay type: cell-based, human; conditions: 72-h incubation
Experimental: as §1, §2

Row | Compound | IC50 [1] | IC50 [2] | IC50 [3] | IC50 [4] | IC50 [5] | IC50 ([1]; Homo sapiens) | IC50 ([3]; Homo sapiens, HepG2, 72 h) | IC50 ([4]; Homo sapiens) | IC50 ([5]; Homo sapiens, A2780, 72 h) | antioxidant activity (in words) [2]
1 | 4-{2-{1-(3-ammoniopropyl)-2-oxo-6-[2-(thiophen-2-yl)acetamido]-1,2,3,4-tetrahydroquinazolin-4-yl}acetamido}-4-carbamoylpiperidin-1-aminium 2,2,2-trifluoroacetate [CA5] | 74.81 ± 0.27 µM | 465 ± 8.61 µM | 65.5 ± 3.16 µM | > 100 µM | 32.3 ± 6.21 µM | – | – | – | – | –
2 | NCCCN1C(=O)NC(CC(=O)NC(CO)C(N)=O)c2cc([N+](=O)[O-])ccc21 (centres unmarked) [CA1-6, 3-{4-{2-[(1-amino-3-hydroxy-1-oxopropan-2-yl)amino]-2-oxoethyl}-6-nitro-2-oxo-3,4-dihydroquinazolin-1(2H)-yl}propan-1-aminium 2,2,2-trifluoroacetate] | – | > 1000 µM | – | – | – | 81.2 ± 1.54 µM | 52.3 ± 3.45 µM | 97.9 ± 15.6 µM | 83.2 ± 2.69 µM | –
3 | NCCCN1C(=O)NC(CC(=O)NC(CO)C(N)=O)c2cc(N)ccc21 (centres unmarked) [CA1-7, 4-{2-[(1-amino-3-hydroxy-1-oxopropan-2-yl)amino]-2-oxoethyl}-1-(3-ammoniopropyl)-2-oxo-1,2,3,4-tetrahydroquinazolin-6-aminium 2,2,2-trifluoroacetate] | – | 57.99 ± 0.38 µM | – | – | – | 90.1 ± 10.9 µM | 59.3 ± 1.85 µM | > 100 µM | 79.8 ± 1.01 µM | –
4 | NCCCN1C(=O)NC(CC(=O)NC(CO)C(N)=O)c2cc(NC(=O)c3ccncc3)ccc21 (centres unmarked) [CA1-a, 3-{4-{2-[(1-amino-3-hydroxy-1-oxopropan-2-yl)amino]-2-oxoethyl}-6-(isonicotinamido)-2-oxo-3,4-dihydroquinazolin-1(2H)-yl}propan-1-aminium 2,2,2-trifluoroacetate] | – | > 1000 µM | – | – | – | 86 ± 2.06 µM | 54.4 ± 3.45 µM | > 100 µM | 80 ± 2.15 µM | –
5 | NCCCN1C(=O)NC(CC(=O)NC(CO)C(N)=O)c2cc(NC(=O)c3ccccc3)ccc21 (centres unmarked) [CA1-b, 3-{4-{2-[(1-amino-3-hydroxy-1-oxopropan-2-yl)amino]-2-oxoethyl}-6-benzamido-2-oxo-3,4-dihydroquinazolin-1(2H)-yl}propan-1-aminium 2,2,2-trifluoroacetate] | – | > 1000 µM | – | – | – | 76.6 ± 2.42 µM | 60.1 ± 3.88 µM | 85.8 ± 4.28 µM | > 100 µM | –
6 | Cc1ccc(C(=O)Nc2ccc3c(c2)C(CC(=O)NC(CO)C(N)=O)NC(=O)N3CCCN)cc1 (centres unmarked) [CA1-c, 3-{4-{2-[(1-amino-3-hydroxy-1-oxopropan-2-yl)amino]-2-oxoethyl}-6-(4-methylbenzamido)-2-oxo-3,4-dihydroquinazolin-1(2H)-yl}propan-1-aminium 2,2,2-trifluoroacetate] | – | 387 ± 58.8 µM | 48.1 ± 2.34 µM | – | – | 92.4 ± 4.91 µM | < 50 µM | 85.4 ± 1.78 µM | > 100 µM | –
7 | NCCCN1C(=O)NC(CC(=O)NC(CO)C(N)=O)c2cc(NC(=O)c3ccc(F)cc3)ccc21 (centres unmarked) [CA1-d, 3-{4-{2-[(1-amino-3-hydroxy-1-oxopropan-2-yl)amino]-2-oxoethyl}-6-(4-fluorobenzamido)-2-oxo-3,4-dihydroquinazolin-1(2H)-yl}propan-1-aminium 2,2,2-trifluoroacetate] | – | > 1000 µM | 49.6 ± 1.91 µM | – | – | 85.7 ± 4.87 µM | < 50 µM | > 100 µM | 88.3 ± 8.56 µM | –
8 | NCCCN1C(=O)NC(CC(=O)NC(CO)C(N)=O)c2cc(NC(=O)c3cccnc3)ccc21.O=C(O)C(F)(F)F (centres unmarked) [CA1-e, 3-{4-{2-[(1-amino-3-hydroxy-1-oxopropan-2-yl)amino]-2-oxoethyl}-6-(nicotinamido)-2-oxo-3,4-dihydroquinazolin-1(2H)-yl}propan-1-aminium 2,2,2-trifluoroacetate] | – | > 1000 µM | 37.6 ± 5.53 µM | – | 22.76 ± 0.22 µM | 85.7 ± 5.3 µM | < 50 µM | > 100 µM | < 40 µM | no antioxidant activity
9 | NCCCN1C(=O)NC(CC(=O)NC(CO)C(N)=O)c2cc(NC(=O)c3ccccn3)ccc21 (centres unmarked) [CA1-f, 3-{4-{2-[(1-amino-3-hydroxy-1-oxopropan-2-yl)amino]-2-oxoethyl}-2-oxo-6-(picolinamido)-3,4-dihydroquinazolin-1(2H)-yl}propan-1-aminium 2,2,2-trifluoroacetate] | – | > 1000 µM | 44.4 ± 2.2 µM | – | – | 81.3 ± 1.21 µM | < 50 µM | 97 ± 4.24 µM | > 100 µM | –
10 | NCCCN1C(=O)NC(CC(=O)NC(CO)C(N)=O)c2cc(NC(=O)COc3ccccc3)ccc21.O=C(O)C(F)(F)F (centres unmarked) [CA1-g, 3-{4-{2-[(1-amino-3-hydroxy-1-oxopropan-2-yl)amino]-2-oxoethyl}-2-oxo-6-(2-phenoxyacetamido)-3,4-dihydroquinazolin-1(2H)-yl}propan-1-aminium 2,2,2-trifluoroacetate] | – | > 1000 µM | 45.4 ± 0.59 µM | – | 24.9 ± 7.22 µM | 82.21 ± 0.59 µM | < 50 µM | > 100 µM | < 40 µM | no antioxidant activity
11 | NCCCN1C(=O)NC(CC(=O)NC(CO)C(N)=O)c2cc(NC(=O)CCc3cccnc3)ccc21 (centres unmarked) [CA1-h, 3-{4-{2-[(1-amino-3-hydroxy-1-oxopropan-2-yl)amino]-2-oxoethyl}-2-oxo-6-[3-(pyridin-3-yl)propanamido]-3,4-dihydroquinazolin-1(2H)-yl}propan-1-aminium 2,2,2-trifluoroacetate] | – | > 1000 µM | – | – | – | 82.2 ± 11.4 µM | 56.93 ± 0.47 µM | 97.5 ± 3.52 µM | 86.1 ± 3.73 µM | –
12 | NCCCN1C(=O)NC(CC(=O)NC(CO)C(N)=O)c2cc(NC(=O)Cc3cccs3)ccc21 (centres unmarked) [CA1-i, 3-{4-{2-[(1-amino-3-hydroxy-1-oxopropan-2-yl)amino]-2-oxoethyl}-2-oxo-6-[2-(thiophen-2-yl)acetamido]-3,4-dihydroquinazolin-1(2H)-yl}propan-1-aminium 2,2,2-trifluoroacetate] | – | 557 ± 24.5 µM | – | – | 34.4 ± 5.61 µM | 89.7 ± 3.79 µM | 49.77 ± 0.12 µM | > 100 µM | < 40 µM | –
13 | COc1ccccc1S(=O)(=O)Nc1ccc2c(c1)C(CC(=O)NC(CO)C(N)=O)NC(=O)N2CCCN (centres unmarked) [CA1-j, 3-{4-{2-[(1-amino-3-hydroxy-1-oxopropan-2-yl)amino]-2-oxoethyl}-6-[(2-methoxyphenyl)sulfonamido]-2-oxo-3,4-dihydroquinazolin-1(2H)-yl}propan-1-aminium 2,2,2-trifluoroacetate] | – | > 1000 µM | – | – | – | 76.3 ± 2.05 µM | 73.8 ± 1.03 µM | > 100 µM | 83.6 ± 1.24 µM | –
14 | CC(C)CCN1C(=O)NC(CC(=O)NC(CCCN)C(N)=O)c2cc(NC(=O)CCc3cccnc3)ccc21 (centres unmarked) [CA3, 5-amino-4-{2-{1-isopentyl-2-oxo-6-[3-(pyridin-3-yl)propanamido]-1,2,3,4-tetrahydroquinazolin-4-yl}acetamido}-5-oxopentan-1-aminium 2,2,2-trifluoroacetate] | – | > 1000 µM | – | – | – | 86 ± 11.1 µM | 64.2 ± 4.69 µM | > 100 µM | 82.9 ± 2.13 µM | –
15 | CC(C)(NC(=O)CC1NC(=O)N(Cc2ccccc2)c2ccc(NC(=O)COc3ccccc3)cc21)C(N)=O (centres unmarked) [CA4, 2-{2-[1-benzyl-2-oxo-6-(2-phenoxyacetamido)-1,2,3,4-tetrahydroquinazolin-4-yl]acetamido}-2-methylpropanamide] | – | 951 ± 30.6 µM | – | – | – | 87.1 ± 4.47 µM | 72.7 ± 2.76 µM | 72.9 ± 0.91 µM | 66.2 ± 4.1 µM | –
16 | CN1C(=O)NC(CC(N)=O)c2cc(NC(=O)c3cccnc3)ccc21 (centres unmarked) [CA6-a, N-[4-(2-amino-2-oxoethyl)-1-methyl-2-oxo-1,2,3,4-tetrahydroquinazolin-6-yl]nicotinamide] | – | > 1000 µM | – | – | – | > 100 µM | > 100 µM | > 100 µM | > 100 µM | –
17 | CN1C(=O)NC(CC(N)=O)c2cc(NC(=O)COc3ccccc3)ccc21 (centres unmarked) [CA6-b, N-[4-(2-amino-2-oxoethyl)-1-methyl-2-oxo-1,2,3,4-tetrahydroquinazolin-6-yl]-2-phenoxyacetamide] | – | > 1000 µM | – | – | – | > 100 µM | 88 ± 1.39 µM | > 100 µM | > 100 µM | –
18 | COc1ccccc1S(=O)(=O)Nc1ccc2c(c1)C(CC(N)=O)NC(=O)N2C (centres unmarked) [CA7-a, 2-{6-[(2-methoxyphenyl)sulfonamido]-1-methyl-2-oxo-1,2,3,4-tetrahydroquinazolin-4-yl}acetamide] | – | > 1000 µM | – | – | – | 87.7 ± 2.58 µM | 86.4 ± 3.42 µM | > 100 µM | 82.9 ± 2.68 µM | –
19 | O=C1O[C@H]([C@@H](O)CO)C(O)=C1O [Vc, ascorbic acid, reference compound] | – | 22.5 ± 0.57 µM | – | – | – | – | – | – | – | –
